How the values were obtained:
BTK = BTK (Homo sapiens, UniProt Q06187); assay: BTK cell degradation in TMD-8 cells, HTRF assay; type: cell-based; parameters: endogenous in cells; host or cells: TMD-8 cells; details: 6 h treatment, IC50 (DC50) of BTK degradation
Summary of the method: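 BTK levels read by HTRF in lysates of TMD-8 cells exposed to compounds for 6 h, eight concentrations at 6-fold steps in 0.2% DMSO. Percent degradation versus DMSO and low controls was fitted with a four-parameter equation to give DC50; Dmax is maximal degradation.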

HEK-293 cells = assay: HEK-293 cytotoxicity detection (CellTiter-Glo); type: cell-based; details: Homo sapiens, 72 h, 72 h incubation, CellTiter-Glo luminescence, read-out: HEK293
Summary of the method: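 HEK-293 cells exposed 72 h to 8 compounds doses (4-fold dilutions, top stock 5 mM at 500×) in 0.2% DMSO. Viability by CellTiter-Glo luminescence; inhibition normalised to DMSO high control and low control, IC50 from four-parameter curve fit.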

Sequence of BTK (Q06187 whole entry): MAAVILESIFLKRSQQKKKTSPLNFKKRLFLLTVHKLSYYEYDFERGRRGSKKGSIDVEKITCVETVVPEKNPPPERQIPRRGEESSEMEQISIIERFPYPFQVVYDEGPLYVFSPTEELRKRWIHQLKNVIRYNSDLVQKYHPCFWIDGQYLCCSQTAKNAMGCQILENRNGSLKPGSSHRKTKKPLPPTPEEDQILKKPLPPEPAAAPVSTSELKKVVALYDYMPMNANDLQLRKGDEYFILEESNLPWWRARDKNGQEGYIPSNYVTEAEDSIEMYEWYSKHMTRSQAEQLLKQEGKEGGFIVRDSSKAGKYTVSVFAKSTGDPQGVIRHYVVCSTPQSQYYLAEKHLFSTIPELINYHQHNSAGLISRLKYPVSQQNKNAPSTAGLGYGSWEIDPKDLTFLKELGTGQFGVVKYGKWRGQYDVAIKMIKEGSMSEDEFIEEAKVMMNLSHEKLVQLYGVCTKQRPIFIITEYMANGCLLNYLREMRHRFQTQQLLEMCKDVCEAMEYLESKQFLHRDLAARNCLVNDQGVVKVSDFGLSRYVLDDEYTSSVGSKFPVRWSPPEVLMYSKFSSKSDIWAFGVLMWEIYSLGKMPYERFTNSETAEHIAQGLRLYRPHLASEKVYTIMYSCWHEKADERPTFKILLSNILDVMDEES

SMILES: NC(=O)c1c(-c2ccc(Oc3ccccc3)cc2)nn2c1Nc1cc(OCCC3CCN(c4ccc(N5CCC(=O)NC5=O)cc4)CC3)ccc1CC2 [Example A25, 6-(2-(1-(4-(2,4-dioxotetrahydropyrimidin-1(2H)-yl)phenyl)piperidin-4-yl)ethoxy)-2-(4-phenoxyphenyl)-9,10-dihydro-4H-benzo[d]pyrazolo[1,5-a][1,3]diazepine-3-carboxamide]
- DC50 (BTK): 24.9 nM
- IC50 (HEK-293 cells): > 10 µM

SMILES: Cc1cccc(NC(=O)c2ccc(-c3nn4c(c3C(N)=O)Nc3ccc(N5CCN(CC6CCN(c7ccc(N8CCC(=O)NC8=O)cc7)CC6)CC5)cc3CC4)cc2)n1 [Example B19, 7-(4-((1-(4-(2,4-dioxotetrahydropyrimidin-1(2H)-yl)phenyl)piperidin-4-yl)methyl)piperazin-1-yl)-2-(4-((6-methylpyridin-2-yl)carbamoyl)phenyl)-9,10-dihydro-4H-benzo[d]pyrazolo[1,5-a][1,3]diazepine-3-carboxamide]
- DC50 (BTK): 0.284 nM
- IC50 (HEK-293 cells): > 10 µM

SMILES: Cc1cc(-c2nn3c(c2C(N)=O)Nc2ccc(N4CCN(CC5CCN(c6ccc(N7CCC(=O)NC7=O)cc6)CC5)CC4)cc2CC3)ccc1CNC(=O)c1nc(C(C)(C)C)no1 [Example C8, 3-(tert-butyl)-N-(4-(3-carbamoyl-7-(4-((1-(4-(2,4-dioxotetrahydropyrimidin-1(2H)-yl)phenyl)piperidin-4-yl)methyl)piperazin-1-yl)-9,10-dihydro-4H-benzo[d]pyrazolo[1,5-a][1,3]diazepin-2-yl)-2-methylbenzyl)-1,2,4-oxadiazole-5-carboxamide]
- DC50 (BTK): 15.6 nM
- IC50 (HEK-293 cells): > 10 µM

SMILES: NC(=O)c1c(-c2ccc(Oc3ccccc3)cc2)nn2c1Nc1ccc(C(=O)NC3CCN(c4ccc5c(c4)C(=O)N(C4CCC(=O)NC4=O)C5=O)CC3)cc1CC2 (stereo not shown) [Example A9, N7-(1-(2-(2,6-dioxopiperidin-3-yl)-1,3-dioxoisoindolin-5-yl)piperidin-4-yl)-2-(4-phenoxyphenyl)-9,10-dihydro-4H-benzo[d]pyrazolo[1,5-a][1,3]diazepine-3,7-dicarboxamide]
- DC50 (BTK): 2.26 nM
- IC50 (HEK-293 cells): 0.0656 µM

SMILES: NC(=O)c1c(-c2ccc(C(=O)Nc3cc(C(F)(F)F)ccn3)cc2)nn2c1Nc1ccc(N3CCN(CC4CCN(c5ccc(N6CCC(=O)NC6=O)cc5)CC4)CC3)cc1CC2 [Example B12, 7-(4-((1-(4-(2,4-dioxotetrahydropyrimidin-1(2H)-yl)phenyl)piperidin-4-yl)methyl)piperazin-1-yl)-2-(4-((4-(trifluoromethyl)pyridin-2-yl)carbamoyl)phenyl)-9,10-dihydro-4H-benzo[d]pyrazolo[1,5-a][1,3]diazepine-3-carboxamide]
- DC50 (BTK): 5.82 nM
- IC50 (HEK-293 cells): > 10 µM

SMILES: Cc1cc(C(=O)Nc2cc(C(F)(F)F)ccn2)ccc1-c1nn2c(c1C(N)=O)Nc1ccc(N3CCN(CC4CCN(c5ccc(N6CCC(=O)NC6=O)cc5)CC4)CC3)cc1CC2 [Example B6, 7-(4-((1-(4-(2,4-dioxotetrahydropyrimidin-1(2H)-yl)phenyl)piperidin-4-yl)methyl)piperazin-1-yl)-2-(2-methyl-4-((4-(trifluoromethyl)pyridin-2-yl)carbamoyl)phenyl)-9,10-dihydro-4H-benzo[d]pyrazolo[1,5-a][1,3]diazepine-3-carboxamide]
- DC50 (BTK): 2.22 nM
- IC50 (HEK-293 cells): > 10 µM

SMILES: Cc1cccc(NC(=O)c2ccc(-c3nn4c(c3C(N)=O)Nc3ccc(N5CCN(C(=O)C6CCN(c7ccc(N8CCC(=O)NC8=O)cc7)CC6)CC5)cc3CC4)c(F)c2C)n1 [Example B73, 7-(4-(1-(4-(2,4-dioxotetrahydropyrimidin-1(2H)-yl)phenyl)piperidine-4-carbonyl)piperazin-1-yl)-2-(2-fluoro-3-methyl-4-((6-methylpyridin-2-yl)carbamoyl)phenyl)-9,10-dihydro-4H-benzo[d]pyrazolo[1,5-a][1,3]diazepine-3-carboxamide]
- DC50 (BTK): 2.18 nM
- IC50 (HEK-293 cells): > 10 µM

SMILES: COc1ccc(C(F)(F)F)cc1C(=O)NCc1ccc(-c2nn3c(c2C(N)=O)Nc2ccc(N4CCN(CC5CCN(c6ccc(N7CCC(=O)NC7=O)cc6)CC5)CC4)cc2CC3)c(F)c1F [Example C28, 2-(2,3-difluoro-4-((2-methoxy-5-(trifluoromethyl)benzamido)methyl)phenyl)-7-(4-((1-(4-(2,4-dioxotetrahydropyrimidin-1(2H)-yl)phenyl)piperidin-4-yl)methyl)piperazin-1-yl)-9,10-dihydro-4H-benzo[d]pyrazolo[1,5-a][1,3]diazepine-3-carboxamide]
- DC50 (BTK): 1.15 nM
- IC50 (HEK-293 cells): > 10 µM

SMILES: Cc1c(C(=O)Nc2cn(C)cn2)ccc(-c2nn3c(c2C(N)=O)Nc2ccc(N4CCN(C(=O)C5CCN(c6ccc(N7CCC(=O)NC7=O)cc6)CC5)CC4)cc2CC3)c1F [Example B91, 7-(4-(1-(4-(2,4-dioxotetrahydropyrimidin-1(2H)-yl)phenyl)piperidine-4-carbonyl)piperazin-1-yl)-2-(2-fluoro-3-methyl-4-((1-methyl-1H-imidazol-4-yl)carbamoyl)phenyl)-9,10-dihydro-4H-benzo[d]pyrazolo[1,5-a][1,3]diazepine-3-arboxamide]
- DC50 (BTK): 1.36 nM
- IC50 (HEK-293 cells): > 10 µM

SMILES: NC(=O)c1c(-c2ccc(Oc3ccccc3)cc2)nn2c1Nc1cc(C3CCN(CCCOc4ccc(NC5CCC(=O)NC5=O)cc4)CC3)ccc1CC2 (stereo not shown) [Example A32, 6-(1-(3-(4-((2,6-dioxopiperidin-3-yl)amino)phenoxy)propyl)piperidin-4-yl)-2-(4-phenoxyphenyl)-9,10-dihydro-4H-benzo[d]pyrazolo[1,5-a] [1,3]diazepine-3-carboxamide]
- DC50 (BTK): 6.03 nM
- IC50 (HEK-293 cells): 0.417 µM

SMILES: COc1ccccc1C(=O)NCc1ccc(-c2nn3c(c2C(N)=O)Nc2ccc(N4CCN(CC5CCN(c6ccc(N7CCC(=O)NC7=O)cc6)CC5)CC4)cc2CC3)c(F)c1F [Example C47, 2-(2,3-difluoro-4-((2-methoxybenzamido)methyl)phenyl)-7-(4-((1-(4-(2,4-dioxotetrahydropyrimidin-1(2H)-yl)phenyl)piperidin-4-yl)methyl)piperazin-1-yl)-9,10-dihydro-4H-benzo[d]pyrazolo[1,5-a] [1,3]diazepine-3-carboxamide]
- DC50 (BTK): 4.64 nM
- IC50 (HEK-293 cells): 0.222 µM

SMILES: Cc1cccc(NC(=O)c2ccc(-c3nn4c(c3C(N)=O)Nc3ccc(N5CCN(C6CN(C7CN(c8ccc9c(c8)C(=O)N(C8CCC(=O)NC8=O)C9=O)C7)C6)CC5)cc3CC4)c(F)c2C)n1 (stereo not shown) [Example B57, 7-(4-(1′-(2-(2,6-dioxopiperidin-3-yl)-1,3-dioxoisoindolin-5-yl)-[1,3′-biazetidin]-3-yl)piperazin-1-yl)-2-(2-fluoro-3-methyl-4-((6-methylpyridin-2-yl)carbamoyl)phenyl)-9,10-dihydro-4H-benzo[d]pyrazolo[1,5-a][1,3]diazepine-3-carboxamide]
- DC50 (BTK): 0.526 nM
- IC50 (HEK-293 cells): > 10 µM

SMILES: Cc1cccc(NC(=O)c2ccc(-c3nn4c(c3C(N)=O)Nc3ccc(N5CCN(C6CC(c7ccc(N[C@H]8CCC(=O)NC8=O)cc7)C6)CC5)cc3CC4)c(F)c2C)n1 (stereo partly drawn) [Example B72, (S)-7-(4-(3-(4-((2,6-dioxopiperidin-3-yl)amino)phenyl)cyclobutyl)piperazin-1-yl)-2-(2-fluoro-3-methyl-4-((6-methylpyridin-2-yl)carbamoyl)phenyl)-9,10-dihydro-4H-benzo[d]pyrazolo[1,5-a][1,3]diazepine-3-carboxamide]
- DC50 (BTK): 6.23 nM
- IC50 (HEK-293 cells): > 10 µM

SMILES: NC(=O)c1c(-c2ccc(Oc3ccccc3)cc2)nn2c1Nc1ccc(CCC3CCN(c4ccc(NC5CCC(=O)NC5=O)cc4)CC3)cc1CC2 (stereo not shown) [Example A26, 7-(2-(1-(4-((2,6-dioxopiperidin-3-yl)amino)phenyl)piperidin-4-yl)ethyl)-2-(4-phenoxyphenyl)-9,10-dihydro-4H-benzo[d]pyrazolo[1,5-a][1,3] diazepine-3-carboxamide]
- DC50 (BTK): 16 nM
- IC50 (HEK-293 cells): 0.283 µM

SMILES: NC(=O)c1c(-c2ccc(Oc3ccccc3)cc2)nn2c1Nc1cc(C3CCN(CCc4ccc(C5CCC(=O)NC5=O)cc4)CC3)ccc1CC2 (stereo not shown) [Example A34, 6-(1-(4-(2,6-dioxopiperidin-3-yl)phenethyl)piperidin-4-yl)-2-(4-phenoxyphenyl)-9,10-dihydro-4H-benzo[d]pyrazolo[1,5-a][1,3]diazepine-3-carboxamide]
- DC50 (BTK): 11.9 nM
- IC50 (HEK-293 cells): 0.337 µM

SMILES: Cc1cccc(NC(=O)c2ccc(-c3nn4c(c3C(N)=O)Nc3ccc(N5CCN(C6CN(c7ccc(N8CCC(=O)NC8=O)cc7)C6)CC5)cc3CC4)c(F)c2C)n1 [Example B66, 7-(4-(1-(4-(2,4-dioxotetrahydropyrimidin-1(2H)-yl)phenyl)azetidin-3-yl)piperazin-1-yl)-2-(2-fluoro-3-methyl-4-((6-methylpyridin-2-yl)carbamoyl)phenyl)-9,10-dihydro-4H-benzo[d]pyrazolo[1,5-a][1,3]diazepine-3-carboxamide]
- DC50 (BTK): 1.35 nM
- IC50 (HEK-293 cells): > 10 µM

SMILES: Cc1cccc(NC(=O)c2cc(F)c(-c3nn4c(c3C(N)=O)Nc3ccc(N5CCN(CC6CCN(c7ccc(N8CCC(=O)NC8=O)cc7)CC6)CC5)cc3CC4)cc2C)n1 [Example B30, 7-(4-((1-(4-(2,4-dioxotetrahydropyrimidin-1(2H)-yl)phenyl)piperidin-4-yl)methyl)piperazin-1-yl)-2-(2-fluoro-5-methyl-4-((6-methylpyridin-2-yl)carbamoyl)phenyl)-9,10-dihydro-4H-benzo[d]pyrazolo[1,5-a][1,3]diazepine-3-carboxamide]
- DC50 (BTK): 2.53 nM
- IC50 (HEK-293 cells): > 10 µM

— US20240246977A1, “DEGRADATION OF BRUTON'S TYROSINE KINASE (BTK) BY CONJUGATION OF BTK INHIBITORS WITH E3 LIGASE LIGAND AND METHOD OF USE” (BeiGene Switzerland GmbH, priority 2021, published 2024)
